Measured values as given in publication PMC8110684, “Effects of Bacillus subtilis iturin A on HepG2 cells in vitro and vivo” (AMB Express, 2021).
Like-named read-outs stand apart in the source and are kept apart here. Where a SMILES comes first, the peptide text is derived from it.

How the values were obtained:
[1] = tested on: HepG2 cells; experiment: Capability to enter cells (CFNSE label, fluorescence microscopy); conditions: dissolved in cell culture medium, incubated with HepG2 for 10 min, fluorescence microscope
Experimental: (§1) The purified CFNSE-iturin A was dissolved in cell culture medium and incubated with HepG2 cells for 10 min, and then observed under a fluorescence microscope and photographed. The control group was cells incubated with CFNSE for the same time.

[2] = Effect of treatment on mice health (weight, serum biochemistry, necropsy, histopathology); format: in vivo, BALB/c nude mice; conditions: 3 mg/kg per day
Experimental: During the 15-day trial, the weight and food intake of mice were recorded daily.
At euthanasia, blood was collected after the animals had been fasted overnight. Blood samples were collected from both control and test groups via cardiac puncture under ketamine anesthesia. All blood samples were then subjected to clinical analysis of aspartate aminotransferase (AST), alanine aminotransferase (ALT), and creatinine (SCr).
Mice were examined for gross lesions. Tissues and organs of interest were retained. The liver, kidneys, and spleen of all mice were weighed soon after dissection and then preserved in 4% paraformaldehyde for histopathological examination (Turki et al. [2010]). Histopathological assessments were performed to evaluate viscera retained from both control and treated animals. Viscera of interest were trimmed, processed, embedded in paraffin, sectioned, and stained with H&E before their microscopic examination.

[3] = tested on: HepG2 cells
Experimental: as §1

| Molecule | entry into HepG2 cells (cell fluorescence) [1] | kidney histopathology (H&E) ([2]; 15 days) | liver histopathology (H&E) ([2]; 15 days) | spleen histopathology (H&E) ([2]; 15 days) | body weight versus control group ([2]; 15 days, n = 6) | weight and viscera indexes of liver, spleen and kidney versus control ([2]; 15 days, n = 6) | serum ALT versus control ([2]; end of administration, n = 6) | serum AST versus control ([2]; end of administration, n = 6) | serum creatinine (SCr) versus control ([2]; end of administration, n = 6) | entry into HepG2 cells (cell fluorescence) [3] |
| --- | --- | --- | --- | --- | --- | --- | --- | --- | --- | --- |
| 5(6)-Carboxy fluorescein N-succinimidyl ester [CFNSE] | could not enter the cells | – | – | – | – | – | – | – | – | – |
| CCCCCCCCCCCC1CC(=O)N[C@@H](CC(N)=O)C(=O)N[C@H](Cc2ccc(O)cc2)C(=O)N[C@H](CC(N)=O)C(=O)N[C@@H](CCC(N)=O)C(=O)N2CCC[C@H]2C(=O)N[C@H](CC(N)=O)C(=O)N[C@@H](CO)C(=O)N1 (stereo partly shown) [iturin A] (HELM PEPTIDE1{N.[dY].[dN].Q.P.[dN].S.[CCCCCCCCCCCC(CC(=O)[*:2])N[*:1]]}$PEPTIDE1,PEPTIDE1,1:R1-8:R2$$$V2.0) | – | no necrotic cells or cell swelling was found | no hepatocyte swelling, necrosis, inflammatory cell infiltration, or other phenomena were observed | orderly arrangement of cells without necrosis | no significant difference | No significant differences | increased significantly | increased significantly | no significant difference | could enter HepG2 cells within very short time |
